Paper PMC10077475, “DG9-conjugated morpholino rescues phenotype in SMA mice by reaching the CNS via a subcutaneous administration” (JCI Insight, 2023)

Tests used:
Type in all cases: in vivo, mouse
[1] = tested on: SMN2 (ISS-N1 intron 7); test: FL-SMN2 expression by RT-qPCR in mild SMA model (F0 mice); conditions: s.c. at PD5; PD7 (40 mg/kg) and PD13 (80 mg/kg)
Source text: To target the motor neurons in the CNS via systemic administration, AOs need to cross the BBB in patients with SMA. For this study, we used a milder SMA model (F0) (Smn^–/– SMN2^+/+) with 4 SMN2 copies obtained from Jackson Laboratory (JAX 005058) that are viable, are fertile, and have shortened, thick tails since severe SMA model mice have a median survival of only 8 days, making it difficult to evaluate the treatment efficacy when the BBB is mature. […] To determine the ability of DG9-PMO to reach the CNS, we subcutaneously injected 40 mg/kg or 80 mg/kg fluorescently tagged DG9-PMO into F0 mice at PD0 or PD5. […] We also performed an ELISA to examine the biodistribution of unconjugated PMO and DG9-PMO at PD7.
(§1) Frozen tissues harvested at PD7 were sectioned using a cryostat (Leica CM 1950) into 20 μm sections. […] The relative gene expression for FL-SMN2 over the deletion of SMN2 transcripts without exon 7 was normalized to the NT control samples and analyzed using the ΔΔCt method. The expression of denervation markers relative to 18S was normalized to the healthy heterozygous control samples collected at PD30 and analyzed using the ΔΔCt method.

[2] = tested on: SMN protein; test: SMN protein levels by Western blotting in tissues of severe SMA mice
Procedure: (§2) To evaluate the change of FL-SMN2 expression relative to Δ7 SMN2 transcripts, we used real-time quantitative PCR (RT-qPCR) at PD7; the mice were treated with DG9-PMO at PD0. In both doses, DG9-PMO treatment led to a 4- to 30-fold higher FL-SMN2 expression than NT control in both peripheral and CNS tissues (Figure 2A and Supplemental Figure 3A). It also led to a ~5-fold increase in FL-SMN2 expression when compared with unconjugated PMO, MOE, and R6G-PMO treatments in the majority of the tissues (Figure 2A, Supplemental Figure 3A, and Supplemental Figure 1F). […] SMN levels were higher in CNS tissues in the DG9-PMO–treated than MOE-treated mice, though no statistical significance was seen. […] SMN levels were similar in DG9-PMO and MOE in the tissues collected from mice at PD30.
Total protein was extracted from frozen tissues harvested at PD7 or PD30 by using RIPA buffer (MilliporeSigma) with cOmplete, Mini, EDTA-free protease inhibitor cocktail (MilliporeSigma). The protein concentration was quantified using the Pierce BCA Protein Assay Kit (Thermo Fisher Scientific). […] The bands were detected using the Amersham ECL Select Western Blotting Detection Kit (GE Healthcare) and visualized by the ChemiDoc Touch Imaging system (Bio-Rad). […]

[3] = tested on: SMN2 (ISS-N1 intron 7); test: FL-SMN2 expression relative to Δ7 SMN2 transcripts by RT-qPCR in tissues of severe SMA mice; conditions: both doses (40 and 80 mg/kg s.c. at PD0), tissues at PD7, peripheral and CNS tissues, RT-qPCR ΔΔCt
Procedure: as §2
Injections were carried out using a 30-gauge Hamilton syringe. SMA mice identified following genotyping were randomly assigned to a treatment group. […]
as §1

[4] = tested on: CD68+ macrophages; test: CD68+ macrophage detection in quadriceps muscle; conditions: 40 mg/kg s.c. at PD0, quadriceps muscle sections at PD7
Source text: Peptides can typically pose as antigens, leading to immune reactions. Therefore, we examined the susceptibility of DG9-PMO to cause immune activation at an early neonatal stage, by looking at CD68^+ cells, indicative of circulating and tissue macrophages, in the quadriceps muscle sections at PD7 (Supplemental Figure 9, A and B). […] The apparent reduction in circulating macrophages following DG9-PMO treatment is likely due to amelioration of the atrophic musculature, which would compensate for any elevation seen from the treatment itself.
Cryosections (7 μm) of the quadriceps muscle were fixed with 4% PFA. The sections were incubated with rat anti-mouse CD68 antibody (MCA1957T, Bio-Rad). The number of CD68^+ cells was counted and averaged from at least 5 sections per sample at random intervals at 20× original magnification.

## CC(=O)N[C@@H](Cc1ccc(O)cc1)C(=O)N[C@@H](C)C(=O)N[C@H](CCCNC(=N)N)C(=O)N[C@H](C(=O)N[C@@H](CCCNC(=N)N)C(=O)N[C@@H](CCCNC(=N)N)C(=O)N[C@H](CCCNC(=N)N)C(=O)NCC(=O)N1CCC[C@H]1C(=O)N[C@@H](CCCNC(=N)N)C(=O)NCC(=O)N[C@@H](Cc1ccc(O)cc1)C(=O)N[C@@H](C)C(=O)N[C@H](CCCNC(=N)N)C(=O)N[C@H](C(=O)N[C@@H](CCCNC(=N)N)C(=O)N[C@@H](CCCNC(=N)N)C(=O)N[C@H](CCCNC(=N)N)C(=O)NCC(=O)N1CCC[C@H]1C(=O)N[C@@H](CCCNC(=N)N)C(=O)N[C@H](CCCNC(=N)N)C(=O)N1C[C@@H](COP(=O)(N(C)C)N2C[C@@H](COP(=O)(N(C)C)N3C[C@@H](COP(=O)(N(C)C)N4C[C@@H](COP(=O)(N(C)C)N5C[C@@H](COP(=O)(N(C)C)N6C[C@@H](COP(=O)(N(C)C)N7C[C@@H](COP(=O)(N(C)C)N8C[C@@H](COP(=O)(N(C)C)N9C[C@@H](COP(=O)(N(C)C)N%10C[C@@H](COP(=O)(N(C)C)N%11C[C@@H](COP(=O)(N(C)C)N%12C[C@@H](COP(=O)(N(C)C)N%13C[C@@H](COP(=O)(N(C)C)N%14C[C@@H](COP(=O)(N(C)C)N%15C[C@@H](COP(=O)(N(C)C)N%16C[C@@H](COP(=O)(N(C)C)N%17C[C@@H](COP(=O)(N(C)C)N%18C[C@@H](COP(=O)(N(C)C)N%19CCC(C(N)=O)CC%19)O[C@@H](n%19cc(C)c(=O)[nH]c%19=O)C%18)O[C@@H](n%18ccc(N)nc%18=O)C%17)O[C@@H](n%17cnc%18c(N)ncnc%18%17)C%16)O[C@@H](n%16ccc(N)nc%16=O)C%15)O[C@@H](n%15cc(C)c(=O)[nH]c%15=O)C%14)O[C@@H](n%14cc(C)c(=O)[nH]c%14=O)C%13)O[C@@H](n%13cc(C)c(=O)[nH]c%13=O)C%12)O[C@@H](n%12ccc(N)nc%12=O)C%11)O[C@@H](n%11cnc%12c(N)ncnc%12%11)C%10)O[C@@H](n%10cc(C)c(=O)[nH]c%10=O)C9)O[C@@H](n9cnc%10c(N)ncnc%109)C8)O[C@@H](n8cnc9c(N)ncnc98)C7)O[C@@H](n7cc(C)c(=O)[nH]c7=O)C6)O[C@@H](n6cnc7c(=O)[nH]c(N)nc76)C5)O[C@@H](n5ccc(N)nc5=O)C4)O[C@@H](n4cc(C)c(=O)[nH]c4=O)C3)O[C@@H](n3cnc4c(=O)[nH]c(N)nc43)C2)O[C@@H](n2cnc3c(=O)[nH]c(N)nc32)C1)C(C)C)C(C)C (some centres unmarked) [DG9-PMO]
[1]
  FL-SMN2 expression, mild SMA model (F0): significant increase in the FL-SMN2 expression in both the CNS and peripheral tissues
[2]; 40 mg/kg s.c. at PD0, tissues at PD30
  SMN expression at PD30 (Western blotting): sustained levels of SMN expression at PD30
[2]; s.c. at PD0, tissues at PD7, relative to β-tubulin
  SMN protein levels (Western blotting): increased SMN protein levels in both the peripheral and CNS tissues
[3]
  FL-SMN2 expression (relative to Δ7 SMN2), fold higher than NT control: 4- to 30 fold
[4]
  number of CD68+ macrophages compared with the Hets: no significant difference
